Columns and labels:
786-0 = assay: Antiproliferative activity against human 786-0 cells assessed as cell growth at 10 uM relative to control; format: functional; settings: read-out: Activity
SR = assay: Antiproliferative activity against human SR cells assessed as cell growth at 10 uM relative to control; format: functional; settings: read-out: Activity
K562 = assay: Antiproliferative activity against human K562 cells assessed as cell growth at 10 uM relative to control; format: functional; settings: read-out: Activity
SK-MEL-5 = assay: Antiproliferative activity against human SK-MEL-5 cells assessed as cell growth at 10 uM relative to control; format: functional; settings: read-out: Activity
SF-295 = assay: Antiproliferative activity against human SF-295 cells assessed as cell growth at 10 uM relative to control; format: functional; settings: read-out: Activity
HT-29 = assay: Antiproliferative activity against human HT-29 cells assessed as cell growth at 10 uM relative to control; format: functional; settings: read-out: Activity
SN12C = assay: Antiproliferative activity against human SN12C cells assessed as cell growth at 10 uM relative to control; format: functional; settings: read-out: Activity
BT-549 = assay: Antiproliferative activity against human BT-549 cells assessed as cell growth at 10 uM relative to control; format: functional; settings: read-out: Activity
M14 = assay: Antiproliferative activity against human M14 cells assessed as cell growth at 10 uM relative to control; format: functional; settings: read-out: Activity
NCI-H23 = assay: Antiproliferative activity against human NCI-H23 cells assessed as cell growth at 10 uM relative to control; format: functional; settings: read-out: Activity
SNB-75 = assay: Antiproliferative activity against human SNB-75 cells assessed as cell growth at 10 uM relative to control; format: functional; settings: read-out: Activity
HCT-15 = assay: Antiproliferative activity against human HCT-15 cells assessed as cell growth at 10 uM relative to control; format: functional; settings: read-out: Activity
SW-620 = assay: Antiproliferative activity against human SW-620 cells assessed as cell growth at 10 uM relative to control; format: functional; settings: read-out: Activity
MOLT-4 = assay: Antiproliferative activity against human MOLT-4 cells assessed as cell growth at 10 uM relative to control; format: functional; settings: read-out: Activity
OVCAR-4 = assay: Antiproliferative activity against human OVCAR-4 cells assessed as cell growth at 10 uM relative to control; format: functional; settings: read-out: Activity
ACHN = assay: Antiproliferative activity against human ACHN cells assessed as cell growth at 10 uM relative to control; format: functional; settings: read-out: Activity
TK-10 = assay: Antiproliferative activity against human TK-10 cells assessed as cell growth at 10 uM relative to control; format: functional; settings: read-out: Activity
OVCAR-5 = assay: Antiproliferative activity against human OVCAR-5 cells assessed as cell growth at 10 uM relative to control; format: functional; settings: read-out: Activity
NCI/ADR-RES = assay: Antiproliferative activity against human NCI/ADR-RES cells assessed as cell growth at 10 uM relative to control; format: functional; settings: read-out: Activity
SK-MEL-2 = assay: Antiproliferative activity against human SK-MEL-2 cells assessed as cell growth at 10 uM relative to control; format: functional; settings: read-out: Activity
RXF 393 = assay: Antiproliferative activity against human RXF 393 cells assessed as cell growth at 10 uM relative to control; format: functional; settings: read-out: Activity
SF-268 = assay: Antiproliferative activity against human SF-268 cells assessed as cell growth at 10 uM relative to control; format: functional; settings: read-out: Activity
EKVX = assay: Antiproliferative activity against human EKVX cells assessed as cell growth at 10 uM relative to control; format: functional; settings: read-out: Activity
CAKI-1 = assay: Antiproliferative activity against human CAKI-1 cells assessed as cell growth at 10 uM relative to control; format: functional; settings: read-out: Activity
OVCAR-3 = assay: Antiproliferative activity against human OVCAR-3 cells assessed as cell growth at 10 uM relative to control; format: functional; settings: read-out: Activity
PC-3 = assay: Antiproliferative activity against human PC-3 cells assessed as cell growth at 10 uM relative to control; format: functional; settings: read-out: Activity
Malme-3M = assay: Antiproliferative activity against human MALME-3M cells assessed as cell growth at 10 uM relative to control; format: functional; settings: read-out: Activity
HCT-116 = assay: Antiproliferative activity against human HCT-116 cells assessed as cell growth at 10 uM relative to control; format: functional; settings: read-out: Activity
U-251 = assay: Antiproliferative activity against human U-251 cells assessed as cell growth at 10 uM relative to control; format: functional; settings: read-out: Activity
UO-31 = assay: Antiproliferative activity against human UO-31 cells assessed as cell growth at 10 uM relative to control; format: functional; settings: read-out: Activity
NCI-H460 = assay: Antiproliferative activity against human NCI-H460 cells assessed as cell growth at 10 uM relative to control; format: functional; settings: read-out: Activity
MDA-MB-468 = assay: Antiproliferative activity against human MDA-MB-468 cells assessed as cell growth at 10 uM relative to control; format: functional; settings: read-out: Activity
LOX IMVI = assay: Antiproliferative activity against human LOX IMVI cells assessed as cell growth at 10 uM relative to control; format: functional; settings: read-out: Activity
SF-539 = assay: Antiproliferative activity against human SF-539 cells assessed as cell growth at 10 uM relative to control; format: functional; settings: read-out: Activity
HOP-92 = assay: Antiproliferative activity against human HOP-92 cells assessed as cell growth at 10 uM relative to control; format: functional; settings: read-out: Activity
NCI-H322M = assay: Antiproliferative activity against human NCI-H322M cells assessed as cell growth at 10 uM relative to control; format: functional; settings: read-out: Activity
MDA-MB-435 = assay: Antiproliferative activity against human MDA-MB-435 cells assessed as cell growth at 10 uM relative to control; format: functional; settings: read-out: Activity
SK-MEL-28 = assay: Antiproliferative activity against human SK-MEL-28 cells assessed as cell growth at 10 uM relative to control; format: functional; settings: read-out: Activity
SK-OV-3 = assay: Antiproliferative activity against human SK-OV-3 cells assessed as cell growth at 10 uM relative to control; format: functional; settings: read-out: Activity
RPMI-8226 = assay: Antiproliferative activity against human RPMI-8226 cells assessed as cell growth at 10 uM relative to control; format: functional; settings: read-out: Activity
HL-60(TB) = assay: Antiproliferative activity against human HL-60(TB) cells assessed as cell growth at 10 uM relative to control; format: functional; settings: read-out: Activity
IGROV-1 = assay: Antiproliferative activity against human IGROV-1 cells assessed as cell growth at 10 uM relative to control; format: functional; settings: read-out: Activity
Hs-578T = assay: Antiproliferative activity against human Hs-578T cells assessed as cell growth at 10 uM relative to control; format: functional; settings: read-out: Activity
OVCAR-8 = assay: Antiproliferative activity against human OVCAR-8 cells assessed as cell growth at 10 uM relative to control; format: functional; settings: read-out: Activity
UACC-62 = assay: Antiproliferative activity against human UACC-62 cells assessed as cell growth at 10 uM relative to control; format: functional; settings: read-out: Activity
NCI-H226 = assay: Antiproliferative activity against human NCI-H226 cells assessed as cell growth at 10 uM relative to control; format: functional; settings: read-out: Activity
A549 = assay: Antiproliferative activity against human A549 cells assessed as cell growth at 10 uM relative to control; format: functional; settings: read-out: Activity
T47D = assay: Antiproliferative activity against human T47D cells assessed as cell growth at 10 uM relative to control; format: functional; settings: read-out: Activity
CCRF-CEM = assay: Antiproliferative activity against human CCRF-CEM cells assessed as cell growth at 10 uM relative to control; format: functional; settings: read-out: Activity
NCI-H522 = assay: Antiproliferative activity against human NCI-H522 cells assessed as cell growth at 10 uM relative to control; format: functional; settings: read-out: Activity
MDA-MB-231 = assay: Antiproliferative activity against human MDA-MB-231 cells assessed as cell growth at 10 uM relative to control; format: functional; settings: read-out: Activity
MCF7 = assay: Antiproliferative activity against human MCF7 cells assessed as cell growth at 10 uM relative to control; format: functional; settings: read-out: Activity
SNB-19 = assay: Antiproliferative activity against human SNB-19 cells assessed as cell growth at 10 uM relative to control; format: functional; settings: read-out: Activity
HOP-62 = assay: Antiproliferative activity against human HOP-62 cells assessed as cell growth at 10 uM relative to control; format: functional; settings: read-out: Activity
HCC 2998 = assay: Antiproliferative activity against human HCC 2998 cells assessed as cell growth at 10 uM relative to control; format: functional; settings: read-out: Activity
A498 = assay: Antiproliferative activity against human A498 cells assessed as cell growth at 10 uM relative to control; format: functional; settings: read-out: Activity
COLO 205 = assay: Antiproliferative activity against human COLO 205 cells assessed as cell growth at 10 uM relative to control; format: functional; settings: read-out: Activity
KM12 [1] = assay: Antiproliferative activity against human KM12 cells assessed as cell growth at 10 uM relative to control; format: functional; settings: read-out: Activity
DU-145 = assay: Antiproliferative activity against human DU-145 cells assessed as cell growth at 10 uM relative to control; format: functional; settings: read-out: Activity
UACC-257 = assay: Antiproliferative activity against human UACC-257 cells assessed as cell growth at 10 uM relative to control; format: functional; settings: read-out: Activity
KM12 [2] = assay: Cytotoxicity against human KM12 cells assessed as reduction in cell viability incubated for 72 hrs by resazurin based assay; format: functional; settings: KM12, 72 h
[3] = target: T1, High affinity nerve growth factor receptor (Homo sapiens, UniProt P04629); assay: Inhibition of recombinant His-tagged human TRKA (441 to 796 residues) expressed in baculovirus expression system at 20 uM using 5-FAM-EEPLYWSFPAKKK-CONH2 as substrate preincubated for 1 hr followed by substrate addition in presence of ATP by mobility shift assay relative to control
Target sequence in this assay (P04629 33-796 limits assumed): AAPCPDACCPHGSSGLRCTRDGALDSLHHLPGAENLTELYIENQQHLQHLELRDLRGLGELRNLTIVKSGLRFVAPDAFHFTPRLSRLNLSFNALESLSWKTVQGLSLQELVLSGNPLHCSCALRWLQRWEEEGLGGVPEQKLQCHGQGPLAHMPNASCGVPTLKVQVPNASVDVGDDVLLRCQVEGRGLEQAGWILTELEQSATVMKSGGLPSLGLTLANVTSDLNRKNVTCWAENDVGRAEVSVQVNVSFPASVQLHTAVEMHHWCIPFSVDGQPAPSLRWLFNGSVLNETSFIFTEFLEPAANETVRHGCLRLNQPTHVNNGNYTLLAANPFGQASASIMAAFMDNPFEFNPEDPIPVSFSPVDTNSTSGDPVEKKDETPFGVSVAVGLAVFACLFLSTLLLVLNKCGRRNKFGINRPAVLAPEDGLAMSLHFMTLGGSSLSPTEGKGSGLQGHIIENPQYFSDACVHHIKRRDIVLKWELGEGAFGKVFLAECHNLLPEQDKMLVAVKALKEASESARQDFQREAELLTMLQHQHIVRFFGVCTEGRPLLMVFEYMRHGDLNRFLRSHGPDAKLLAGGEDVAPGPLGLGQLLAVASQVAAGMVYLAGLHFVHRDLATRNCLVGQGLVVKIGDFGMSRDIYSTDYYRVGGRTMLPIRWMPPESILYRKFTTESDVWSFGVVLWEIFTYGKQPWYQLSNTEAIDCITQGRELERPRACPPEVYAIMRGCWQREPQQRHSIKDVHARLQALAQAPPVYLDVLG

[4] = target: T1, High affinity nerve growth factor receptor; assay: Inhibition of recombinant His-tagged human TRKA (441 to 796 residues) expressed in baculovirus expression system using 5-FAM-EEPLYWSFPAKKK-CONH2 as substrate preincubated for 1 hr followed by substrate addition in presence of ATP by mobility shift assay
Target sequence in this assay (P04629 whole entry, the tested form may be a part): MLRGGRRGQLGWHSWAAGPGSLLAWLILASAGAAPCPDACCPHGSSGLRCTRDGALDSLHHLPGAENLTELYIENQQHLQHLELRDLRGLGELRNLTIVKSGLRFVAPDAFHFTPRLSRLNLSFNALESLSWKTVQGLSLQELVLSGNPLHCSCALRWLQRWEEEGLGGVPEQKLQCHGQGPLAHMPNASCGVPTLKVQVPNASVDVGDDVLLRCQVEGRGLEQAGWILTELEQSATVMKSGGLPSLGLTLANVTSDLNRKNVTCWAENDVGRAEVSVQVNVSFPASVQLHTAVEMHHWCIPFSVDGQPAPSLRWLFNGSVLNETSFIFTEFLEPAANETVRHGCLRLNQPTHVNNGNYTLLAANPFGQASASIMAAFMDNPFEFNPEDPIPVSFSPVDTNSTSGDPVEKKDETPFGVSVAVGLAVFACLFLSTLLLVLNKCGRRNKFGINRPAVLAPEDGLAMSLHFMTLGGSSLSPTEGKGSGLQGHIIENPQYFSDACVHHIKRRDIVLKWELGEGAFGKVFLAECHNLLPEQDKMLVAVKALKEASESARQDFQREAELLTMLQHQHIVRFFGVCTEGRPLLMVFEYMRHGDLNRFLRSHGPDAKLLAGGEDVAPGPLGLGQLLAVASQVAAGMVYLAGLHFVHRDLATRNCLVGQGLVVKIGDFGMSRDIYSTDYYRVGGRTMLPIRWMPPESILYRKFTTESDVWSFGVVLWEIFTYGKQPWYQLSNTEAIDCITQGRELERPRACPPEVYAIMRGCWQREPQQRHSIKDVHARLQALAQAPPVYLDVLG

Cn1cc(-c2cc3ncnc(Nc4ccc(CC(=O)Nc5ccc(C(C)(C)C)cc5)cc4)c3s2)cn1
growth at 10 µM (786-0): 101% | growth at 10 µM (SR): 102% | growth at 10 µM (K562): 91.5% | growth at 10 µM (SK-MEL-5): 98.3% | growth at 10 µM (SF-295): 117% | growth at 10 µM (HT-29): 102% | growth at 10 µM (SN12C): 98.5% | growth at 10 µM (BT-549): 107% | growth at 10 µM (M14): 102% | growth at 10 µM (NCI-H23): 106% | growth at 10 µM (SNB-75): 75% | growth at 10 µM (HCT-15): 102% | growth at 10 µM (SW-620): 119% | growth at 10 µM (MOLT-4): 97.5% | growth at 10 µM (OVCAR-4): 98.6% | growth at 10 µM (ACHN): 84.3% | growth at 10 µM (TK-10): 98.6% | growth at 10 µM (OVCAR-5): 118% | growth at 10 µM (NCI/ADR-RES): 108% | growth at 10 µM (SK-MEL-2): 105% | growth at 10 µM (RXF 393): 93.2% | growth at 10 µM (SF-268): 101% | growth at 10 µM (EKVX): 93.2% | growth at 10 µM (CAKI-1): 86% | growth at 10 µM (OVCAR-3): 110% | growth at 10 µM (PC-3): 99.1% | growth at 10 µM (Malme-3M): 102% | growth at 10 µM (HCT-116): 104% | growth at 10 µM (U-251): 88.3% | growth at 10 µM (UO-31): 102% | growth at 10 µM (NCI-H460): 99% | growth at 10 µM (MDA-MB-468): 90.9% | growth at 10 µM (LOX IMVI): 106% | growth at 10 µM (SF-539): 66.9% | growth at 10 µM (HOP-92): 132% | growth at 10 µM (NCI-H322M): 99.7% | growth at 10 µM (MDA-MB-435): 104% | growth at 10 µM (SK-MEL-28): 107% | growth at 10 µM (SK-OV-3): 120% | growth at 10 µM (RPMI-8226): 103% | growth at 10 µM (HL-60(TB)): 97.8% | growth at 10 µM (IGROV-1): 98.2% | growth at 10 µM (Hs-578T): 88.8% | growth at 10 µM (OVCAR-8): 103% | growth at 10 µM (UACC-62): 101% | growth at 10 µM (NCI-H226): 95.5% | growth at 10 µM (A549): 98.3% | growth at 10 µM (T47D): 93.7% | growth at 10 µM (CCRF-CEM): 100% | growth at 10 µM (NCI-H522): 93% | growth at 10 µM (MDA-MB-231): 105% | growth at 10 µM (MCF7): 96.2% | growth at 10 µM (SNB-19): 101% | growth at 10 µM (HOP-62): 125% | growth at 10 µM (HCC 2998): 136% | growth at 10 µM (A498): 88.1% | growth at 10 µM (COLO 205): 120% | growth at 10 µM (KM12 [1]): 22.4% | growth at 10 µM (DU-145): 98.2% | growth at 10 µM (UACC-257): 110%

Fc1ccc(Nc2ncnc3ccsc23)cc1
IC50 (KM12 [2]): 133 µM | inhibition [3]: 17.4%

Cn1nc(C(C)(C)C)cc1NC(=O)Cc1ccc(-c2ncnc3ccsc23)cc1
IC50 (KM12 [2]): 25.2 µM | inhibition [3]: 31.4%

COc1cc(-c2cc3ncnc(Nc4ccc(CC(=O)Nc5ccc(F)c(Cl)c5)cc4)c3s2)cc(OC)c1OC
IC50 [4]: > 200 µM

Reference: ChEMBL document CHEMBL4813963, “Discovery of pyrazolo-thieno[3,2-d]pyrimidinylamino-phenyl acetamides as type-II pan-tropomyosin receptor kinase (TRK) inhibitors: Design, synthesis, and biological evaluation” (Eur J Med Chem, 2021)
